We go through 20 compounds from US20200172483A1, “HETEROCYCLIC SMALL MOLECULE MODULATORS OF HUMAN STING” (Curadev Pharma Limited, priority 2017, published 2020).

SMILES strings stand for the structures. Where two headings read alike, the source gives them in different places. A value given as a limit tells only on which side of the number the result lay.

The target of one assay is T1, hSTING (H232) (Homo sapiens, UniProt Q86WV6).
T1 construct: host or cells: HEK293T
The assay can be described thus: Luciferase reporter assay in HEK293T-hSTING-Luciferase cells (H232/REF polymorph). Format: cell-based. To be noted: EC50 range. From the text: (§1) • a) Stable STING expressing cells—Stable HEK293T STING-expressing cell lines were generated using plasmids purchased from Invivogen, CA, USA, that contain STING cDNA cloned into the pUNO-1 vector under hEF1-HTLV promoter and containing the Blasticidin selection cassette. The plasmids hSTING (R232), hSTING (H232), hSTING (HAQ) were directly procured from Invivogen while hSTING (AQ) and hSTING (Q) were derived from hSTING (HAQ) and hSTING (R232) plasmids respectively by using a PCR based site directed mutagenesis method. These vectors were individually transfected into HEK293T cells using Lipofectamine (Invitrogen) and transfected cells were selected under Blasticidin selection. These transfected cells were further subjected to clonal selection using the limiting dilution method to obtain clonally pure populations of HEK cells transfected with each of the above mentioned human STING variants. Only those clones were selected in which ligand independent activation of STING was minimal. • b) Stable Luciferase reporter gene expressing cells—Stable HEK293T Luciferase reporter gene expressing cell lines were generated using pCDNA4 plasmids under an IRF-inducible promoter. This promoter is comprised of five tandem interferon-stimulated response elements (ISRE) fused to an ISG54 minimal promoter. This vector was transfected into HEK293T cells using Lipofectamine (Invitrogen) and transfected cells were selected under Zeocin selection. These transfected cells were further subjected to clonal selection using the limiting dilution method to obtain clonally pure populations of HEK cells transfected the Luciferase reporter construct. Only those clones were selected in which ligand independent induction of luciferase was minimal.
(§2) 5×10^5 clonally selected HEK293T-hSTING-Luciferase cells were seeded in 384-well plates in growth medium and stimulated with novel compounds. After 20 hr of stimulation supernatant were removed and secretary reporter gene activity were measured using the Quanti-Luc detection system (Invivogen) on a Spectramax i3X luminometer.
(§3) The 5 major polymorphisms of human STING are shown in FIG. 1, with their prevalence in human populations indicated.

In the next assay the target is T2, hSTING (HAQ) (Homo sapiens, UniProt Q86WV6, G230A/H232R/R293Q/R71H).
T2 construct: host or cells: HEK293T
As to the kind of experiment: Luciferase reporter assay in HEK293T-hSTING-Luciferase cells (HAQ polymorph). Format: cell-based. Particulars: EC50 range.
Text: as §1, §2, §3

The subject of a further assay is NF-κB pathway. The assay can be described thus: Reporter gene expression assay for NFκB axis in THP1-Dual cells (secreted SEAP). Format: cell-based, human. To be noted: 20 hr stimulation, QUANTI-Blue SEAP, EC50 range, read-out: THP-NFKB activity. The protocol: (§4) THP1-Dual™ cells (Invivogen) were derived from the human THP-1 monocyte cell line by stable integration of two inducible reporter constructs. As a result, THP1-Dual™ cells allow the simultaneous study of the NF-κB pathway, by monitoring the activity of secreted SEAP, and the IRF pathway, by assessing the activity of a secreted luciferase (Lucia). […] THP1-Dual™ cells were seeded in 384-well plates in growth medium and stimulated with novel compounds. After 20 hr of stimulation supernatant were removed and reporter proteins were readily measured in the cell culture supernatant using QUANTI-Blue™ (Invivogen), a SEAP detection reagent, and QUANTI-Luc™ (Invivogen), a luciferase detection reagent on a Spectramax i3X luminometer. EC50 value ranges for exemplary compounds tested in the above assay are given.
(In general: In a reporter assay the amount or activity of a reporter protein is the signal.)

A further assay deals with IRF pathway. The assay can be described thus: Reporter gene expression assay for IRF axis in THP1-Dual cells (secreted Lucia luciferase). Particulars: 20 hr stimulation, QUANTI-Luc, EC50 range, read-out: THP-IRF activity. Format: cell-based, human. The protocol: as §4
For the next assay, the target named is T3, WT/R232 STING protein (Homo sapiens, UniProt Q86WV6, H232R).
T3 construct: host or cells: HEK293T
The assay can be described thus: Luciferase reporter assay in HEK293T-hSTING-Luciferase cells (R232). Format: cell-based. Particulars: 20 hr stimulation, EC50 range. The procedure, abridged: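 Clonal HEK293T cells stably expressing human STING R232 plus an ISRE/ISG54-driven secreted luciferase reporter, stimulated with compounds for 20 hr. Luciferase in supernatant read by luminescence; activity given as fold-induction over baseline.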

T1 sequence (Q86WV6 whole entry): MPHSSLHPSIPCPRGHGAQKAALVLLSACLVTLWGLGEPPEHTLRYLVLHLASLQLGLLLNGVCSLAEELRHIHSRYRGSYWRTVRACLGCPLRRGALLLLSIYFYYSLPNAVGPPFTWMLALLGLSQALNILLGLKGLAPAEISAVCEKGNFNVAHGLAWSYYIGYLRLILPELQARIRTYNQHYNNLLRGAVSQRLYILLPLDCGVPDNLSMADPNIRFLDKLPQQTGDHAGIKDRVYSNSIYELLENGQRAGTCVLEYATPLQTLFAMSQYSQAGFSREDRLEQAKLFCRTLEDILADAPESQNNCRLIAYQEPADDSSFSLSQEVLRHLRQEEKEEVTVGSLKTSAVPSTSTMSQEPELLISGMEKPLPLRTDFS
T3 sequence (Q86WV6 whole entry H232R): as the sequence (Q86WV6 whole entry) above, with H232R counted along it
T2 sequence (Q86WV6 whole entry R71H/G230A/H232R/R293Q): as the sequence (Q86WV6 whole entry) above, with R71H, G230A, H232R, R293Q counted along it

For `CC1(C)C(=O)N(Cc2c(F)cccc2Cl)c2cc(C(=O)NCc3c(F)cc(F)cc3F)ccc21` [Example 2, 1-(2-chloro-6-fluorobenzyl)-3,3-dimethyl-2-oxo-N-(2,4,6-trifluorobenzyl)indoline-6-carboxamide], the EC50 was at most 1 µM at hSTING (H232); at most 1 µM on hSTING (HAQ); 1 to 10 µM in the assay on NF-κB pathway (Homo sapiens, THP1-Dual, 20 h); 1 to 10 µM with IRF pathway (Homo sapiens, THP1-Dual, 20 h); at most 1 µM on WT/R232 STING protein.

Turning to `Cc1cccc(CNC(=O)c2ccc3c(c2)N(Cc2cc(F)cc(F)c2)C(=O)C3(C)C)c1` [Example 4, 1-(3,5-difluorobenzyl)-3,3-dimethyl-N-(3-methylbenzyl)-2-oxoindoline-6-carboxamide], the EC50 on hSTING (H232) is 1 to 10 µM; at hSTING (HAQ), 1 to 10 µM; in the assay with NF-κB pathway (Homo sapiens, THP1-Dual, 20 h), above 10 µM; in the assay with IRF pathway (Homo sapiens, THP1-Dual, 20 h), above 10 µM; on WT/R232 STING protein it was 1 to 10 µM.

As to `CC1(C)C(=O)N(Cc2cc(F)cc(F)c2)c2cc(C(=O)NCc3c(F)cc(F)cc3F)ccc21` [Example 5, 1-(3,5-difluorobenzyl)-3,3-dimethyl-2-oxo-N-(2,4,6-trifluorobenzyl)indoline-6-carboxamide], the EC50 on hSTING (H232) was at most 1 µM; at hSTING (HAQ), at most 1 µM; in the assay on NF-κB pathway (Homo sapiens, THP1-Dual, 20 h), 1 to 10 µM; with IRF pathway (Homo sapiens, THP1-Dual, 20 h) it was 1 to 10 µM; at WT/R232 STING protein, at most 1 µM.

`CC1(C)C(=O)N(Cc2ccccc2F)c2cc(C(=O)NCc3c(F)cc(F)cc3F)ccc21` [Example 6, 1-(2-fluorobenzyl)-3,3-dimethyl-2-oxo-N-(2,4,6-trifluorobenzyl)indoline-6-carboxamide]: the EC50 on hSTING (H232) was at most 1 µM; at hSTING (HAQ) it was at most 1 µM; in the assay on NF-κB pathway (Homo sapiens, THP1-Dual, 20 h), 1 to 10 µM; with IRF pathway (Homo sapiens, THP1-Dual, 20 h), 1 to 10 µM; at WT/R232 STING protein, at most 1 µM.

With `Cc1cccc(CNC(=O)c2ccc3c(c2)N(Cc2c(F)cccc2Cl)C(=O)C3(C)C)c1` [Example 8, 1-(2-chloro-6-fluorobenzyl)-3,3-dimethyl-N-(3-methylbenzyl)-2-oxoindoline-6-carboxamide], the EC50 is 1 to 10 µM at hSTING (H232); 1 to 10 µM at hSTING (HAQ); 1 to 10 µM in the assay with NF-κB pathway (Homo sapiens, THP1-Dual, 20 h); above 10 µM with IRF pathway (Homo sapiens, THP1-Dual, 20 h); at most 1 µM on WT/R232 STING protein.

As for `CC1(C)C(=O)N(Cc2ccccc2)c2cc(C(=O)NCc3c(F)cc(F)cc3F)ccc21` [Example 11, 1-benzyl-3,3-dimethyl-2-oxo-N-(2,4,6-trifluorobenzyl)indoline-6-carboxamide], the EC50 at hSTING (H232) was 1 to 10 µM; on hSTING (HAQ) it was 1 to 10 µM; in the assay with NF-κB pathway (Homo sapiens, THP1-Dual, 20 h), 1 to 10 µM; in the assay on IRF pathway (Homo sapiens, THP1-Dual, 20 h), above 10 µM; on WT/R232 STING protein, at most 1 µM.

Consider `CC1(C)C(=O)N(Cc2c(F)cccc2Cl)c2cc(C(=O)NCc3cccc(F)c3)ccc21` [Example 12, 1-(2-chloro-6-fluorobenzyl)-N-(3-fluorobenzyl)-3,3-dimethyl-2-oxoindoline-6-carboxamide], for which the EC50 was 1 to 10 µM on hSTING (H232); 1 to 10 µM at hSTING (HAQ); above 10 µM in the assay on NF-κB pathway (Homo sapiens, THP1-Dual, 20 h); above 10 µM with IRF pathway (Homo sapiens, THP1-Dual, 20 h); at most 1 µM on WT/R232 STING protein.

Turning to `Cc1ccc(CNC(=O)c2ccc3c(c2)N(Cc2c(F)cccc2Cl)C(=O)C3(C)C)o1` [Example 13, 1-(2-chloro-6-fluorobenzyl)-3,3-dimethyl-N-((5-methylfuran-2-yl)methyl)-2-oxoindoline-6-carboxamide], the EC50 on hSTING (H232) was 1 to 10 µM; on hSTING (HAQ) it was 1 to 10 µM; with NF-κB pathway (Homo sapiens, THP1-Dual, 20 h), above 10 µM; in the assay with IRF pathway (Homo sapiens, THP1-Dual, 20 h) it was above 10 µM; on WT/R232 STING protein it was at most 1 µM.

Regarding `CC1(C)C(=O)N(Cc2cccc(F)c2)c2cc(C(=O)NCc3c(F)cc(F)cc3F)ccc21` [Example 14, 1-(3-fluorobenzyl)-3,3-dimethyl-2-oxo-N-(2,4,6-trifluorobenzyl)indoline-6-carboxamide], the EC50 on hSTING (H232) was 1 to 10 µM; on hSTING (HAQ), 1 to 10 µM; in the assay with NF-κB pathway (Homo sapiens, THP1-Dual, 20 h), 1 to 10 µM; with IRF pathway (Homo sapiens, THP1-Dual, 20 h), 1 to 10 µM; on WT/R232 STING protein it was at most 1 µM.

Regarding `Cc1ccc(CNC(=O)c2ccc3c(c2)N(Cc2cc(F)cc(F)c2)C(=O)C3(C)C)o1` [Example 16, 1-(3,5-difluorobenzyl)-3,3-dimethyl-N-((5-methylfuran-2-yl)methyl)-2-oxoindoline-6-carboxamide], the EC50 on hSTING (H232) was 1 to 10 µM; at hSTING (HAQ), 1 to 10 µM; with NF-κB pathway (Homo sapiens, THP1-Dual, 20 h) it was above 10 µM; with IRF pathway (Homo sapiens, THP1-Dual, 20 h), above 10 µM; on WT/R232 STING protein, 1 to 10 µM.

Turning to `CC1(C#N)C(=O)N(Cc2cc(F)cc(F)c2)c2cc(C(=O)NCc3c(F)cc(F)cc3F)ccc21` (stereo not drawn) [Example 163, 3-cyano-1-(3,5-difluorobenzyl)-3-methyl-2-oxo-N-(2,4,6-trifluorobenzyl)indoline-6-carboxamide], the EC50 in the assay with NF-κB pathway and with IRF pathway was 1 to 10 µM throughout.

As for `CC1(C#N)C(=O)N(Cc2cc(F)cc(F)c2)c2cc(C(=O)NCc3c(F)cc(F)cc3F)ccc21` (stereo not drawn) [Example 167, 3-cyano-1-(3,5-difluorobenzyl)-3-methyl-2-oxo-N-(2,4,6-trifluorobenzyl)indoline-6-carboxamide], the EC50 with NF-κB pathway and with IRF pathway was 1 to 10 µM each time.

Take `CC1(C#N)C(=O)N(Cc2cc(F)cc(F)c2)c2cc(C(=O)NCc3c(F)cc(F)cc3F)ccc21` (stereo not drawn) [Example 168, 3-cyano-1-(3,5-difluorobenzyl)-3-methyl-2-oxo-N-(2,4,6-trifluorobenzyl)indoline-6-carboxamide]: the EC50 with NF-κB pathway and in the assay on IRF pathway was above 10 µM each time.

The compound `Cc1ccc(CNC(=O)c2cnc3c(c2)N(Cc2c(C)cccc2F)C(=O)C3(C)C)o1` [Example 196, 1-(2-fluoro-6-methylbenzyl)-3,3-dimethyl-N-((5-methylfuran-2-yl)methyl)-2-oxo-2,3-dihydro-1H-pyrrolo[3,2-b]pyridine-6-carboxamide] came in with an EC50 at WT/R232 STING protein above 10 µM.

Take `Cc1cccc(F)c1CN1C(=O)C(C)(C)c2ncc(C(=O)NCc3ccc(F)cc3)cc21` [Example 197, 1-(2-fluoro-6-methylbenzyl)-N-(4-fluorobenzyl)-3,3-dimethyl-2-oxo-2,3-dihydro-1H-pyrrolo[3,2-b]pyridine-6-carboxamide]: at WT/R232 STING protein, the EC50 was above 10 µM.

`CC1(C)C(=O)N(Cc2cc(F)cc(F)c2)c2cc(C(=O)NCc3ccc(F)cc3)cnc21` [Example 198, 1-(3,5-difluorobenzyl)-N-(4-fluorobenzyl)-3,3-dimethyl-2-oxo-2,3-dihydro-1H-pyrrolo[3,2-b]pyridine-6-carboxamide] came in with an EC50 at WT/R232 STING protein of 1 to 10 µM.

Regarding `CC1(C)C(=O)N(Cc2cc(F)cc(F)c2)c2cc(C(=O)NCc3ccc(F)cc3F)cnc21` [Example 199, N-(2,4-difluorobenzyl)-1-(3,5-difluorobenzyl)-3,3-dimethyl-2-oxo-2,3-dihydro-1H-pyrrolo[3,2-b]pyridine-6-carboxamide], the EC50 on WT/R232 STING protein was in the range of 1 to 10 µM.

As for `O=C(NCc1ccco1)c1ccc2oc(=O)n(Cc3ccccc3F)c2c1` [Example 200, 3-(2-Fluorobenzyl)-N-(furan-2-ylmethyl)-2-oxo-2,3-dihydrobenzo[d]oxazole-5-carboxamide], the EC50 at WT/R232 STING protein was above 10 µM.

`O=C(NCc1ccco1)c1ccc2sc(=O)n(Cc3c(F)cccc3Cl)c2c1` [Example 201, 3-(2-chloro-6-fluorobenzyl)-N-(furan-2-ylmethyl)-2-oxo-2,3-dihydrobenzo[d]thiazole-5-carboxamide] displayed an EC50 on WT/R232 STING protein above 10 µM.

Regarding `Cn1c(=O)n(Cc2ccccc2Cl)c2cc(C(=O)NCc3ccco3)ccc21` [Example 202, 3-(2-chlorobenzyl)-N-(furan-2-ylmethyl)-1-methyl-2-oxo-2,3-dihydro-1H-benzo[d]imidazole-5-carboxamide], on WT/R232 STING protein, the EC50 was above 10 µM.
